From patent US9067928B2 (Genentech, Inc., priority 2008, dated 2015)

Experiments:
Bcl-xL [1] = target: T1, Bcl-xL (Homo sapiens, UniProt Q07817); assay: Alpha Screen Bcl-xL binding assay, competition with Bim26-mer; conditions: values listed in the order of Table 1; read-out: Alphascreen results (IC50)
T1 construct: made in house
Protocol: The measurement of competition of compounds of the invention with Bim26-mer for a Bcl-2 family protein binding site using an Alpha Screen Bcl-xL Binding Assay:
The BH3 proteins ALPHASCREEN™ assay was used to identify active small molecules Bcl-2 family protein screen. e.g., Bcl-xL, hmMcl-1 screen. To determine an accurate estimation of the IC50, the compounds were routinely tested at starting concentrations, 100 μM and/or 1 μM and serially titrated 3 fold over 11 dilutions.
The beads come in close proximity when the protein and the peptides interact. Donor beads contain a photosensitiser that converts oxygen to an excited form of O2 at an excitation of 680 nm. Energy is transformed from the singlet oxygen and reacts with chemiluminescers on the acceptor bead, resulting in light emission at 520-620 nm. […] With this information, the IC50 of each compound was calculated
GST-Bcl-xL, GST-hmMcl-1 and biotinylated GST proteins were prepared in-house and were stored as stock solutions at −80° C. The biotinylated-Bak, and biotinylated-Bim peptides were purchased from Auspep and were stored as 500 μM stock solutions in 100% DMSO at −80° C. The ALPHASCREEN™ GST (Glutathione-S-Transferase) Detection Kit was obtained from Perkin Elmer Lifesciences (Cat #6760603R). The Proxiplates, white 384 well flat-Bottom plates were purchased from Interpath Services, Melbourne (Cat #784075). The seals to cover the plates were purchased from Proscience. Melbourne (Cat#784075). DMSO was purchased from AnalaR. The 384 deep well plates and the Polypropylene 50 μL, V bottom polypropylene compound plates were purchased from Matrical.
Compounds of the invention were prepared as 10 mM stocks with 100% DMSO on the day prior to performing the assay. […] To achieve a final compound concentration of 1 μM, in a separate matrical plate, 28 μL of 100% DMSO and 2 μL of 10 mM compound was added to a well, mixed well. 2 μL of this solution was taken and added to 38 μL of 100% DMSO. 20 μL of this solution was added to the test matrical plate. Several control compounds were included in the test plates. For the control wells 15 μL 100% DMSO only was added to the appropriate wells of each plate. The compound plates were then serially diluted 2 fold using the MiniTrak. Once titrations were complete, the compound plate was immediately covered with a foil seal to prevent evaporation.
The assay and bead buffers were prepared fresh. Each titrated compound plate was assayed in duplicate. The following volumes were sufficient to run 12 Proxiplates (4 assay plates run in duplicate in each of Bclxl, hmMcl and counter assays)
Protein and Peptide Preparation; and Assay Performance • 1. The assay and bead buffers were used to prepare the acceptor and donor solutions. ALPHASCREEN™ beads are light sensitive and therefore prepared in a darkened room. 2.5 μL of beads were added per 1 mL of buffer. • 2. The volume of protein or peptide to add was calculated using the following formula:
[formula] • C1=Final Concentration of protein/peptide • C2=Stock Concentration of protein/peptide • V1=Total Volume of Acceptor/Donor Solution • V2=Volume of stock protein/Peptide to add to Acceptor/Donor solution • 3. The assay components were prepared as separate Acceptor and Donor Solutions. The Acceptor Solution contained Acceptor heads and target protein, while the Donor Solution contained Donor beads and biotinylated peptide.
• 4. After the solutions were prepared, they were left to incubate for 30 minutes at room temperature to allow the beads to bind to the protein and the peptide. • 5. 50 μL of Bcl-xL solution, 50 μL of hmMcl-1 solution and 50 µL of biotinylated-GST were added into separate deep wells on an assay plate. A control […]. Assay/Bead buffer was added separate well plates (no protein). • 6.

Bcl-2 = target: T2, Bcl-2 (Homo sapiens, UniProt P10415); assay: TR-FRET binding assay, competition with F-Bak for Bcl-2 binding site; conditions: GST-Bcl-2, F-Bak probe
T2 construct: made in house
T2 sequence (P10415 whole entry, species assumed): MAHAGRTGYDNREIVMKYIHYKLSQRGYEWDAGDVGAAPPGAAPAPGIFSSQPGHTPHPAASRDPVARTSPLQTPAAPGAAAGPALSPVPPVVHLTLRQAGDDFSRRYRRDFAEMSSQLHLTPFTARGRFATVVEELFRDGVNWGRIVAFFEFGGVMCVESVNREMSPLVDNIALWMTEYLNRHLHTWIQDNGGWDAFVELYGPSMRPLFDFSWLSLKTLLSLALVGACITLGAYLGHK
Protocol: (§1) Test compounds were serially diluted in DMSO starting at 50 μM (2× starting concentration; 10% DMSO) and 10 μL transferred into a 384-well plate.
(§2) The samples are then mixed on a shaker for 1 minute then incubated for an additional 2 hours at room temperature. For each assay plate, a probe/antibody and protein/antibody/probe mixture were included as a negative and a positive control, respectively. Fluorescence was measured on the Envision (Perkin Elmer) using a 340/35 nm excitation filter and 520/525 (F-Bak) and 495/510 nm (Tb-labeled anti-his antibody) emission filters. Dissociation constants (Ki) were determined using Wang's equation (see, Wang, Z. X. An exact mathematical expression for describing competitive binding of two different ligands to a protein molecule. FEBS Lett. 1995 360:111-114). The TR-FRET assay can be performed in the presence of varying concentrations of human serum (HS) or fetal bovine serum (FBS).
For comparison, the measurement of the competition of compounds of the invention for other Bcl-2 family protein binding sites (e.g., Bcl-2, Mcl-1) using the TR-FRET binding assay was accomplish by substituting GST-Bcl-xL in the TR-FRET assay with other GST-labeled protein, e.g. GST-Bcl-2, GST-Mcl-1 prepared in-house.
For comparison, data (Ki in micromolar) from the measurement of the competition by certain compounds of the invention (i.e., compounds 1, 28, 38, 63, 71, 75, 80, 81, 92 and 94 in Table 1) with F-Bak for the Bcl-2 binding site using the TR-FRET binding assay are, 1.2, 0.15, 0.01, 0.018, 0.50, 0.272, 0.167, 0.66, 0.23 and 0.000003 respectively.

Bcl-xL [2] = target: T1, Bcl-xL; assay: TR-FRET binding assay, competition with F-Bak for Bcl-xL binding site; conditions: GST-Bcl-xL, F-Bak probe
Protocol: The measurement of competition of compounds of the invention with F-Bak for a Bcl-2 family protein (Bcl-xL) binding site using a Time Resolved Fluorescence Resonance Energy Transfer (TR-FRET) Binding Assay:
as §1, §2

[3] = tested on: Mcl-1-/- mouse embryonic fibroblasts (MEF); assay: Cell viability assay for Mcl-1-/- mouse embryonic fibroblasts (CellTiter-Glo); format: cell-based; conditions: Fibroblast, 1% Fetal Bovine Serum, read-out: MEF Mcl-1-/- KO cell viability results (EC50)
Text: a. Cell Viability Assay for Mcl-1^−/− Mouse Embryonic Fibroblasts (MEF):
Neutralization of both […] and Mcl-1 anti-apoptotic proteins in normal cells is required before a cell undergoes apoptosis via the downstream Bax/Bak pathway See, Chen. L. et al. Mol. Cell (2005) 17, 393-403; Willis, S. N. et al. Genes Dev. (2005) 19, 1294-1305. A compound that only targets Bcl-xL should not affect normal cells, but could kill certain cancer cells if they rely more on Bcl-xL and less on other anti-apoptotic proteins, e.g. Mcl-1, for survival. To mirror this, compounds of the invention were tested for its effect on survival of wild type (wt) mouse embryo fibroblasts (MEFs), Bax/Bak double knockout (BB DKO) MEFs, MEFs that expressed Noxa, and MEFs that expressed Bad. Noxa specifically neutralizes Mcl-1. […] MEFs that express Noxa mirror cancer cell types that are reliant on Bcl-xL for survival and should be much more sensitive to killing by a Bcl-xL targeting compound than MEFs where both Bcl-xL and Mcl-1 are protective.
In this assay, Mcl-1^(−/−) cells were used to confirm that cell apoptosis in the presence of BH3 mimetic small molecules was due to predominantly Bcl-xL inactivation. This inactivation leaves Bax/Bak unconstrained and results in apoptosis. The […]-GLO Luminescent Cell Viability Assay is a homogeneous method of determining the number of viable cells in culture based on quantitation of the ATP present. The amount of ATP correlates with the presence of metabolically active cells such that following cell lysis the amount of ATP present is proportional to the amount of luminescence measured.
Mcl-1^(−/−) mouse embryonic fibroblasts (MEFs) are an adherent cell line prepared in house. MEFs were grown in Iwaki 75 cm^2 tissue culture flasks (cat #3123-075) with FMA media which consists of: • 89% DME Kelso • 10% heat-inactivated foetal calf serum (FCS) (Hyclone cat #SH30396.03) • 1% 10 mM asparagine (Fluka cat #11149) • 275 μl of a 1:2000 dilution of 2-mercaptoethanol is added to the final 500 ml volume of FMA (Sigma cat #M7522; diluted in MT-PBS)
FMA was stored at 4° C. and used at 37° C. MEFs were cultured in FMA media and harvested in MT-PBS and trypsin. For MEF cell viability assays, cells were seeded separately in plates with 10% FCS-FMA and 1% FCS-FMA. […]
Automated Systems that can be used in this assay include: 1) Multidrop—The MULTIDROP 384 (ThermoLabsystems) dispenser was used to dispense cells aseptically into the assay plates: 2) MiniTrak—The […] system from Perkin Elmer was used for titration of the compound plates; 3) Zymark—The ZYMARK SCICLONE ALH3000 System with 100 nL pintool head was used for compound addition to the cells; 4) EnVision—The ENVISION plate reader was used to measure the viability via the detection of the luminescence. […]

T1 sequence (Q07817 whole entry, species assumed): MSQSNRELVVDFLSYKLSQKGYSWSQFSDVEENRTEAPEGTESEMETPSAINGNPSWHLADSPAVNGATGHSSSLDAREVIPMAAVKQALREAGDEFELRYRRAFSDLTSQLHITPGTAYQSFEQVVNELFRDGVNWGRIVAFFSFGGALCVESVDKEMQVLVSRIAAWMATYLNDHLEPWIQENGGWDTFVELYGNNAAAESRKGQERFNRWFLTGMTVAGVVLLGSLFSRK

Compound | IC50 (Bcl-xL [1]) | Ki (Bcl-2) | Ki (Bcl-xL [2]) | EC50 [3]
O=C(O)c1csc(-c2ccc3c(c2)N(C(=O)Nc2nc4ccccc4s2)CCC3)n1 [Example 1] | 360 nM | 1200 nM | 197 nM | –
O=C(O)c1nc(-c2ccc3c(c2)N(C(=O)Nc2nc4ccccc4s2)CCC3)sc1Oc1ccccc1 [Example 63, 2-(1-(benzo[d]thiazol-2-ylcarbamoyl)-1,2,3,4-tetrahydroquinolin-7-yl)-5-phenoxythiazole-4-carboxylic acid] | 50 nM | 18 nM | 12 nM | –
O=C(O)c1ccc(-c2sc(-c3ccc4c(c3)N(C(=O)Nc3nc5ccccc5s3)CCO4)nc2C(=O)O)cc1 [Example 68, 2-(4-(benzo[d]thiazol-2-ylcarbamoyl)-3,4-dihydro-2H-benzo[b][1,4]oxazin-6-yl)-5-(4-carboxyphenyl)thiazole-4-carboxylic acid] | 540 nM | – | 470 nM | –
COc1ccc(-c2sc(-c3ccc4c(c3)N(C(=O)Nc3nc5ccccc5s3)CCC4)nc2C(=O)O)cc1 [Example 71, 2-(1-(benzo[d]thiazol-2-ylcarbamoyl)-1,2,3,4-tetrahydroquinolin-7-yl)-5-(4-methoxyphenyl)thiazole-4-carboxylic acid] | 40 nM | 500 nM | 7 nM | –
O=C(O)c1nc(-c2ccc3c(c2)N(C(=O)Nc2nc4ccccc4s2)CCC3)sc1/C=C/c1ccccc1 [Example 74, (E)-2-(1-(benzo[d]thiazol-2-ylcarbamoyl)-1,2,3,4-tetrahydroquinolin-7-yl)-5-styrythiazole-4-carboxylic acid] | 3 nM | – | – | 60 nM
CCOc1ccc(-c2sc(-c3ccc4c(c3)N(C(=O)Nc3nc5ccccc5s3)CCC4)nc2C(=O)O)cc1 [Example 75, 2-(1-(benzo[d]thiazol-2-ylcarbamoyl)-1,2,3,4-tetrahydroquinolin-7-yl)-5-(4-ethoxyphenyl)thiazole-4-carboxylic acid] | 7 nM | 272 nM | 1 nM | –
CC(C)Oc1ccc(-c2sc(-c3ccc4c(c3)N(C(=O)Nc3nc5ccccc5s3)CCC4)nc2C(=O)O)cc1F [Example 80, 2-(1-(benzo[d]thiazol-2-ylcarbamoyl)-1,2,3,4-tetrahydroquinolin-7-yl)-5-(3-fluoro-4-isopropoxyphenyl)thiazole-4-carboxylic acid] | 6 nM | 167 nM | 0.7 nM | –
COc1ccc(-c2sc(-c3ccc4c(c3)N(C(=O)Nc3nc5ccccc5s3)CCC4)nc2C(=O)N(C)C)cc1 [Example 81, 2-(1-(benzo[d]thiazol-2-ylcarbamoyl)-1,2,3,4-tetrahydroquinolin-7-yl)-5-(4-methoxyphenyl)-N,N-dimethylthiazole-4-carboxamide] | 380 nM | 660 nM | 660 nM | –
O=C(O)c1nc(-c2ccc3c(c2)N(C(=O)Nc2nc4ccccc4s2)CCC3)sc1CCCOc1ccc(-n2ncc3cncnc32)cc1 [Example 94, 5-(3-(4-(1H-pyrazolo[3,4-d]pyrimidin-1-yl)phenoxy)propyl)-2-(1-(benzo[d]thiazol-2-ylcarbamoyl)-1,2,3,4-tetrahydroquinolin-7-yl)thiazole-4-carboxylic acid] | 0.5 nM | 0.003 nM | 0.003 nM | –
